Test: Sensory evaluation of sweetness linger and taste by expert panel
Set-up: key: 0=no sweetness linger; 1=very slight sweetness linger; 2 slight sweetness linger; 3=moderate sweetness linger; 4=moderately high sweetness linger; 5=high sweetness linger
Details: scale 0-5
Description: In a particular embodiment, a panel of assessors is used to measure the reduction of sweetness linger. Briefly described, a panel of assessors (generally 8 to 12 individuals) is trained to evaluate sweetness perception and measure sweetness at several time points from when the sample is initially taken into the mouth until 3 minutes after it has been expectorated. […] A decrease in score for a time point measured after the sample has cleared the mouth indicates there has been a reduction in sweetness perception.
The panel of assessors may be trained using procedures well known to those of ordinary skill in the art. In a particular embodiment, the panel of assessors may be trained using the Spectrum™ Descriptive Analysis Method (Meilgaard et al, Sensory Evaluation Techniques, 3rd edition, Chapter 11). Desirably, the focus of training should be the recognition of and the measure of the basic tastes; specifically, sweet. In order to ensure accuracy and reproducibility of results, each assessor should repeat the measure of the reduction of sweetness linger about three to about five times per sample, taking at least a five minute break between each repetition and/or sample and rinsing well with water to clear the mouth.
Generally, the method of measuring sweetness comprises taking a 10 mL sample into the mouth, holding the sample in the mouth for 5 seconds and gently swirling the sample in the mouth, rating the sweetness intensity perceived at 5 seconds, expectorating the sample (without swallowing following expectorating the sample), rinsing with one mouthful of water (e.g., vigorously moving water in mouth as if with mouth wash) and expectorating the rinse water, rating the sweetness intensity perceived immediately upon expectorating the rinse water, waiting 45 seconds and, while waiting those 45 seconds, identifying the time of maximum perceived sweetness intensity and rating the sweetness intensity at that time (moving the mouth normally and swallowing as needed), rating the sweetness intensity after another 10 seconds, rating the sweetness intensity after another 60 seconds (cumulative 120 seconds after rinse), and rating the sweetness intensity after still another 60 seconds (cumulative 180 seconds after rinse). Between samples take a 5 minute break, rinsing well with water to clear the mouth.
Sensory evaluation of the samples prepared in Example Set G was carried out under the following protocol, similar to that described hereinabove. In this test protocol, none of the samples were swallowed. […] Immediately upon sensing maximal sweetness, the sample was expectorated, the mouth was rinsed with water and the rate of sweetness decay (“Sweetness Linger”) was measured, where attention was focused on the sweetness 3-4 min after the water rinse. […]

[1] = Example Set G, citric acid/potassium citrate composition equivalent to diet lemon-lime beverage, sweetness 3-4 min after water rinse
[2] = Example Set H, carbon-treated water with phosphoric acid (75%), pH 2.4-2.5

Molecule: OC[C@H]1O[C@@](CO)(O[C@H]2O[C@H](CO)[C@@H](O)[C@H](O)[C@H]2O)[C@@H](O)[C@@H]1O [sugar, sucrose]
- Sweetness linger [1]: 0
- Sweetness linger [2]: 0

Molecule: rebaudioside A
- Sweetness linger [1]: 5
- Sweetness linger [2]: 5

From patent US8945652B2, “High-potency sweetener for weight management and compositions sweetened therewith” (The Coca-Cola Company, priority 2005, dated 2015)
